Assay results: article PMC11378339, “Design, synthesis, and in vitro and in silico study of 1-benzyl-indole hybrid thiosemicarbazones as competitive tyrosinase inhibitors” (RSC Advances, 2024)

How the values were obtained:
mushroom tyrosinase [1] = test: Tyrosinase inhibition assay (96-well, L-DOPA substrate, dopachrome at 480 nm); assay type: biochemical; settings: for IC50: mean ± SEM, triplicate, substrate L-DOPA
Method: Using a spectrophotometer microplate reader, the 96-well plate tyrosinase inhibition experiment was performed by Masamoto et al.'s protocol.[65,66] […] Then, add 60 μL of phosphate buffer and 10 μL of mushroom tyrosinase (30 U mL^−1 in phosphate buffer) to the reaction mixture incubated for 10 min at 25 °C. Following incubation, 20 μL of substrate L-DOPA (0.5 mM) in phosphate buffer was added. The end product dopachrome formation was measured at 480 nm for continues 10 min with one min interval time using 96-well ELISA plate reader (Bio-Rad xMARK microplate spectrophotometer). All of the experiments were carried out in triplicate to account for potential mistakes, and the mean findings were reported in SEM. All of the in vitro experiment results, including % inhibition and IC50 values, were examined using EZ-Fit, an enzyme kinetics tool that fits curves (Perrella Scientific Inc., Amherst, USA).
The % inhibition was computed using the formula provided below.1 [drawing 39]
EZ-FIT (Perrella Scientific, Inc., USA) was used to calculate each tested compound's IC50 value. All the experiments were performed in triplicate to reduce predicted errors, and differences in the outcomes are expressed as Standard Error of Mean values (SEM).2 [drawing 40]

mushroom tyrosinase [2] = test: Kinetic analysis of tyrosinase inhibition (Lineweaver-Burk, Dixon plot); assay type: biochemical; settings: substrate L-Dopa 0.1-0.8 mM
Method: Four distinct doses of the substrate L-Dopa 0.1, 0.2, 0.4, and 0.8 mM were used in the kinetic analysis. The in vitro mechanistic study was carried out by following a similar inhibitory procedure with a similar experimental temperature and time period. […]

Compound	Percent inhibition (0.5 mM) (mushroom tyrosinase [1])	IC50 (mushroom tyrosinase [1])	melting point	Ki (mushroom tyrosinase [2])	type of inhibition (mushroom tyrosinase [2])
COc1ccc(NC(=S)N/N=C/c2cn(Cc3ccccc3)c3ccccc23)cc1 [Compound 5a, (E)-2-[(1-benzyl-1H-indol-3-yl)methylene]-N-(4-methoxyphenyl)hydrazinecarbothioamide]	87.15%	24.2 ± 0.38 µM	–	–	–
S=C(NCCc1ccccc1)N/N=C/c1cn(Cc2ccccc2)c2ccccc12 [Compound 5b, (E)-2-[(1-benzyl-1H-indol-3-yl)methylene]-N-phenethylhydrazinecarbothioamide]	78.35%	45.4 ± 0.75 µM	198 to 201 °C	–	–
S=C(NCc1ccc(Cl)cc1)N/N=C/c1cn(Cc2ccccc2)c2ccccc12 [Compound 5e, (E)-2-[(1-benzyl-1H-indol-3-yl)methylene]-N-(4-chlorobenzyl)hydrazinecarbothioamide]	84.73%	33.6 ± 1.1 µM	225 to 227 °C	–	–
S=C(N/N=C/c1cn(Cc2ccccc2)c2ccccc12)Nc1cccc(Cl)c1Cl [Compound 5f, (E)-2-[(1-benzyl-1H-indol-3-yl)methylene]-N-(2,3-dichlorophenyl)hydrazinecarbo thioamide]	90.83%	15.3 ± 0.37 µM	213 to 215 °C	–	–
S=C(NCc1ccccc1)N/N=C/c1cn(Cc2ccccc2)c2ccccc12 [Compound 5i, (E)-N-benzyl-2-[(1-benzyl-1H-indol-3-yl)methylene]hydrazinecarbothioamide]	82.71%	36.7 ± 1.48 µM	193 to 195 °C	–	–
O=[N+]([O-])c1cccc(NC(=S)N/N=C/c2cn(Cc3ccccc3)c3ccccc23)c1 [Compound 5o, (E)-2-[(1-benzyl-1H-indol-3-yl)methylene]-N-(3-nitrophenyl)hydrazinecarbothioamide]	91.34%	17.1 ± 0.28 µM	–	–	–
O=[N+]([O-])c1ccc(NC(=S)N/N=C/c2cn(Cc3ccccc3)c3ccccc23)cc1 [Compound 5q, (E)-2-[(1-benzyl-1H-indol-3-yl)methylene]-N-(4-nitrophenyl)hydrazinecarbothioamide]	91.53%	15.3 ± 0.3 µM	223 to 225 °C	–	–
S=C(N/N=C/c1cn(Cc2ccccc2)c2ccccc12)Nc1cccc2ccccc12 [Compound 5r, (E)-2-[(1-benzyl-1H-indol-3-yl)methylene]-N-(naphthalen-1-yl)hydrazinecarbothioamide]	77.86%	34.6 ± 0.81 µM	199 to 201 °C	–	–

Further lines, results first:

Percent inhibition (0.5 mM) (mushroom tyrosinase [1])	IC50 (mushroom tyrosinase [1])	melting point	Ki (mushroom tyrosinase [2])	type of inhibition (mushroom tyrosinase [2])	Compound
85.66%	27.4 ± 0.6 µM	–	–	–	Cc1cccc(C)c1NC(=S)N/N=C/c1cn(Cc2ccccc2)c2ccccc12 [Compound 5c, (E)-2-[(1-benzyl-1H-indol-3-yl)methylene]-N-(2,6-dimethylphenyl)hydrazinecarbo thioamide]
90.47%	16.8 ± 0.38 µM	–	–	–	Fc1ccc(NC(=S)N/N=C/c2cn(Cc3ccccc3)c3ccccc23)cc1 [Compound 5d, (E)-2-[(1-benzyl-1H-indol-3-yl)methylene]-N-(4-fluorophenyl)hydrazinecarbothioamide]
81.47%	38.3 ± 1.34 µM	–	–	–	S=C(N/N=C/c1cn(Cc2ccccc2)c2ccccc12)Nc1ccccc1 [Compound 5g, (E)-2-[(1-benzyl-1H-indol-3-yl)methylene]-N-phenylhydrazinecarbothioamide]
83.76%	29.7 ± 0.72 µM	180 to 182 °C	–	–	Cc1ccc(NC(=S)N/N=C/c2cn(Cc3ccccc3)c3ccccc23)c(C)c1 [Compound 5h, (E)-2-[(1-benzyl-1H-indol-3-yl)methylene]-N-(2,4-dimethylphenyl)hydrazinecarbo thioamide]
84.19%	26.8 ± 0.29 µM	–	–	–	S=C(N/N=C/c1cn(Cc2ccccc2)c2ccccc12)Nc1ccc(Br)cc1 [Compound 5j, (E)-2-[(1-benzyl-1H-indol-3-yl)methylene]-N-(4-bromophenyl)hydrazinecarbothioamide]
90.84%	12.4 ± 0.26 µM	223 to 225 °C	10.2 ± 0.006 µM	competitive	Cc1ccc(CNC(=S)N/N=C/c2cn(Cc3ccccc3)c3ccccc23)cc1 [Compound 5k, (E)-2-[(1-benzyl-1H-indol-3-yl)methylene]-N-(4-methylbenzyl)hydrazinecarbothioamide]
84.39%	31.6 ± 1.26 µM	–	–	–	COc1cccc(NC(=S)N/N=C/c2cn(Cc3ccccc3)c3ccccc23)c1 [Compound 5l, (E)-2-[(1-benzyl-1H-indol-3-yl)methylene]-N-(3-methoxyphenyl)hydrazinecarbothioamide]
76.35%	47.2 ± 1.27 µM	221 to 223 °C	–	–	Cc1cc(C)cc(NC(=S)N/N=C/c2cn(Cc3ccccc3)c3ccccc23)c1 [Compound 5m, (E)-2-[(1-benzyl-1H-indol-3-yl)methylene]-N-(3,5-dimethylphenyl)hydrazine carbo thioamide]
86.54%	26.1 ± 0.47 µM	221 to 223 °C	–	–	Cc1ccc(NC(=S)N/N=C/c2cn(Cc3ccccc3)c3ccccc23)cc1 [Compound 5n, (E)-2-[(1-benzyl-1H-indol-3-yl)methylene]-N-(p-tolyl)hydrazinecarbothioamide]
46.20%	–	220 to 221 °C	–	–	CNC(=S)N/N=C/c1cn(Cc2ccccc2)c2ccccc12 [Compound 5p, (E)-2-[(1-benzyl-1H-indol-3-yl)methylene]-N-methylhydrazinecarbothioamide]
